“Also recorded” adds a separate entry of the source. Where two headings read alike, the source gives them in different places.
What was measured:
[1] = tested on: preclinical models of human prostate cancer (PC); conditions: Kiess et al., 2016, cited from earlier work
[2] = tested on: PSMA + PC3-PIP and PSMA-PC3-flu flank xenografts; conditions: cited from earlier work; for Biodistribution, Blood / Biodistribution, Flu tumor / Biodistribution, PIP tumor / Biodistribution, Spleen / Biodistribution, Stomach / Biodistribution, kidney / Biodistribution, thyroid: no blocker, inhibitors reported in WO2017070482
[3] = tested on: PSMA + PC3-PIP and PSMA-PC3-flu flank xenografts; assay: Biodistribution of At-211 labeled PSMA inhibitors with and without cold blocking agent (Tables 6-8); assay type: in vivo, athymic mice
Protocol: Organs were harvested 1, 4, and 24 h post-injection (n=5 per time point).

PSMA− PC3-flu = assay: Efficacy in subcutaneous (SC) PSMA− PC3-flu model; assay type: in vivo, NOD/SCID/IL-2rγ−/− (NSG) mice; conditions: single intravenous injection of different doses; FIG. 3A
Protocol: (§1) Two murine models of human PC were generated, a subcutaneous (SC) model of PSMA+PC3-PIP and PSMA-PC3-flu cells and a metastatic model of PSMA+ PC3ML/PSMA/fLuc in NOD/SCID/IL-2rγ−/− (NSG) mice. Single intravenous injection of different doses (FIG. 3) was given to each animal and the tumor progression was monitored by measuring the SC tumor volume or by performing bioluminescence imaging for the metastatic model.

[4] = tested on: PSMA+PC3-PIP and PSMA-PC3-flu flank xenografts; assay: Biodistribution of [125I/211At]2 and 3 with and without co-injection of DCIBzL (Example 6); assay type: in vivo, athymic mice
Source text: Final compounds were purified by HPLC.

CD-1 mice = assay: Long-term toxicity in healthy immunocompetent mice; assay type: in vivo; conditions: 1.48 MBq, 0.74 MBq, 0.244 MBq; up to 4 months after treatment
PSMA+ PC3-PIP = assay: Efficacy in subcutaneous (SC) PSMA+ PC3-PIP model; assay type: in vivo, NOD/SCID/IL-2rγ−/− (NSG) mice; conditions: single intravenous injection of different doses; FIG. 3A
Protocol: as §1

[5] = 21-24 Hour (footnote b), + 0.25 nmole YC-I-27
[6] = 21-24 Hour (footnote b), no blocker
[7] = previously shown, Mease et al., 2018

SMILES: O=C(O)CC[C@H](NC(=O)NC(CCCCNC(=O)c1ccc([211At])cc1)C(=O)O)C(=O)O (stereo partly drawn) [YC-I-27, (2S)-2-(3-(1-Carboxy-5-(4-211At-Astatobenzamido)Pentyl)Ureido)-Pentanedioic Acid]
- efficacy as PSMA-targeted radiopharmaceutical therapy (RPT) agent [1]: high efficacy
- renal toxicity ([1]; due to high uptake and long retention in kidney): caused renal failure
- Biodistribution, Blood ([2]; 1 Hour): 1.7 ± 0.3 % injected dose/g
- Biodistribution, Flu tumor ([2]; 1 Hour): 2.2 ± 0.4 % injected dose/g
- Biodistribution, PIP tumor ([2]; 1 Hour): 17.9 ± 3.0 % injected dose/g
- Biodistribution, Spleen ([2]; 1 Hour): 29 ± 10 % injected dose/g
- Biodistribution, Stomach ([2]; 1 Hour): 10.1 ± 1.7 % injected dose/g
- Biodistribution, kidney ([2]; 1 Hour): 71 ± 12 % injected dose/g
- Biodistribution, thyroid ([2]; 1 Hour): 3.7 ± 1.1 % injected dose/g
- Biodistribution, Blood ([2]; 4 H): 1.0 ± 0.1 % injected dose/g
- Biodistribution, Flu tumor ([2]; 4 H): 1.5 ± 0.2 % injected dose/g
- Biodistribution, Spleen ([2]; 4 H): 20.3 ± 3.6 % injected dose/g
- Biodistribution, kidney ([2]; 4 H): 60 ± 12 % injected dose/g
- Biodistribution, thyroid ([2]; 4 H): 3.8 ± 1.2 % injected dose/g
- Biodistribution, Blood ([2]; 21-24 Hour (footnote a)): 0.5 ± 0.05 % injected dose/g
- Biodistribution, Flu tumor ([2]; 21-24 Hour (footnote a)): 1.2 ± 0.2 % injected dose/g
- Biodistribution, PIP tumor ([2]; 21-24 Hour (footnote a)): 31.1 ± 9.8 % injected dose/g
- Biodistribution, Spleen ([2]; 21-24 Hour (footnote a)): 8.0 ± 2.0 % injected dose/g
- Biodistribution, Stomach ([2]; 21-24 Hour (footnote a)): 9.4 ± 3.0 % injected dose/g
- Biodistribution, kidney ([2]; 21-24 Hour (footnote a)): 57.4 ± 7.4 % injected dose/g
- Biodistribution, thyroid ([2]; 21-24 Hour (footnote a)): 6.5 ± 2.0 % injected dose/g

SMILES: O=C([O-])CN1CCN(CC(=O)[O-])CCN(CC(=O)NCCCCC(=O)N(CCCC[C@H](NC(=O)N[C@@H](CCC(=O)O)C(=O)O)C(=O)O)Cc2ccc([211At])cc2)CCN(CC(=O)[O-])CC1.[Lu+3] [[^211At]VK-02-90-Lu]
- Biodistribution, Blood ([3]; 1 Hour, 0.5 nmole YC-I-27): 0.5 ± 0.1 % injected dose/g
- Biodistribution, Flu tumor ([3]; 1 Hour, 0.5 nmole YC-I-27): 0.4 ± 0.1 % injected dose/g
- Biodistribution, PIP tumor ([3]; 1 Hour, 0.5 nmole YC-I-27): 25.4 ± 4.4 % injected dose/g
- Biodistribution, Spleen ([3]; 1 Hour, 0.5 nmole YC-I-27): 0.3 ± 0.4 % injected dose/g
- Biodistribution, Stomach ([3]; 1 Hour, 0.5 nmole YC-I-27): 0.4 ± 0.2 % injected dose/g
- Biodistribution, kidney ([3]; 1 Hour, 0.5 nmole YC-I-27): 2.2 ± 0.6 % injected dose/g
- Biodistribution, lacrimal gland ([3]; 1 Hour, 0.5 nmole YC-I-27): 0 % injected dose/g
- Biodistribution, salivary gland ([3]; 1 Hour, 0.5 nmole YC-I-27): 0.4 ± 0.15 % injected dose/g
- Biodistribution, Blood ([3]; 1 Hour, + 0.25 nmole YC-I-27): 0.6 ± 0.04 % injected dose/g
- Biodistribution, Flu tumor ([3]; 1 Hour, + 0.25 nmole YC-I-27): 0.4 ± 0.1 % injected dose/g
- Biodistribution, PIP tumor ([3]; 1 Hour, + 0.25 nmole YC-I-27): 34.2 ± 7.8 % injected dose/g
- Biodistribution, Spleen ([3]; 1 Hour, + 0.25 nmole YC-I-27): 0.5 ± 0.4 % injected dose/g
- Biodistribution, Stomach ([3]; 1 Hour, + 0.25 nmole YC-I-27): 0.4 ± 0.2 % injected dose/g
- Biodistribution, kidney ([3]; 1 Hour, + 0.25 nmole YC-I-27): 5.0 ± 1.6 % injected dose/g
- Biodistribution, lacrimal gland ([3]; 1 Hour, + 0.25 nmole YC-I-27): 0.1 ± 0.4 % injected dose/g
- Biodistribution, salivary gland ([3]; 1 Hour, + 0.25 nmole YC-I-27): 0.4 ± 0.15 % injected dose/g
- Biodistribution, Blood ([3]; 1 Hour, no blocker): 0.8 ± 0.2 % injected dose/g
- Biodistribution, Flu tumor ([3]; 1 Hour, no blocker): 0.4 ± 0.2 % injected dose/g
- Biodistribution, PIP tumor ([3]; 1 Hour, no blocker): 30.6 ± 4.8 % injected dose/g
- Biodistribution, Spleen ([3]; 1 Hour, no blocker): 2.5 ± 0.9 % injected dose/g
- Biodistribution, Stomach ([3]; 1 Hour, no blocker): 0.4 ± 0.1 % injected dose/g
- Biodistribution, kidney ([3]; 1 Hour, no blocker): 90 ± 43 % injected dose/g
- Biodistribution, lacrimal gland ([3]; 1 Hour, no blocker): 0.8 ± 0.9 % injected dose/g
- Biodistribution, salivary gland ([3]; 1 Hour, no blocker): 0.5 ± 0.2 % injected dose/g
- Biodistribution, Blood ([3]; 4 H, 0.5 nmole YC-I-27): 0.2 ± 0.1 % injected dose/g
- Biodistribution, Flu tumor ([3]; 4 H, 0.5 nmole YC-I-27): 0.1 ± 0.04 % injected dose/g
- Biodistribution, PIP tumor ([3]; 4 H, 0.5 nmole YC-I-27): 18.7 ± 5.4 % injected dose/g
- Biodistribution, Spleen ([3]; 4 H, 0.5 nmole YC-I-27): 0.8 ± 0.5 % injected dose/g
- Biodistribution, Stomach ([3]; 4 H, 0.5 nmole YC-I-27): 0.4 ± 0.05 % injected dose/g
- Biodistribution, kidney ([3]; 4 H, 0.5 nmole YC-I-27): 0.7 ± 0.1 % injected dose/g
- Biodistribution, lacrimal gland ([3]; 4 H, 0.5 nmole YC-I-27): 0 % injected dose/g
- Biodistribution, salivary gland ([3]; 4 H, 0.5 nmole YC-I-27): 0.3 ± 0.2 % injected dose/g
- Biodistribution, Blood ([3]; 4 H, + 0.25 nmole YC-I-27): 0.2 ± 0.1 % injected dose/g
- Biodistribution, Flu tumor ([3]; 4 H, + 0.25 nmole YC-I-27): 0.1 ± 0.2 % injected dose/g
- Biodistribution, PIP tumor ([3]; 4 H, + 0.25 nmole YC-I-27): 27.8 ± 8.7 % injected dose/g
- Biodistribution, Spleen ([3]; 4 H, + 0.25 nmole YC-I-27): 0.1 ± 0.5 % injected dose/g
- Biodistribution, Stomach ([3]; 4 H, + 0.25 nmole YC-I-27): 0.5 ± 0.3 % injected dose/g
- Biodistribution, kidney ([3]; 4 H, + 0.25 nmole YC-I-27): 1.4 ± 0.3 % injected dose/g
- Biodistribution, lacrimal gland ([3]; 4 H, + 0.25 nmole YC-I-27): 0.4 ± 0.4 % injected dose/g
- Biodistribution, salivary gland ([3]; 4 H, + 0.25 nmole YC-I-27): 0.2 ± 0.1 % injected dose/g
- Biodistribution, Blood ([3]; 4 H, no blocker): 0.1 ± 0.03 % injected dose/g
- Biodistribution, Flu tumor ([3]; 4 H, no blocker): 0.1 ± 0.1 % injected dose/g
- Biodistribution, Spleen ([3]; 4 H, no blocker): 0 % injected dose/g
- Biodistribution, Stomach ([3]; 4 H, no blocker): 0.3 ± 0.2 % injected dose/g
- Biodistribution, kidney ([3]; 4 H, no blocker): 2.1 ± 0.6 % injected dose/g
- Biodistribution, lacrimal gland ([3]; 4 H, no blocker): 0.3 ± 1.1 % injected dose/g
- Biodistribution, salivary gland ([3]; 4 H, no blocker): 0.2 ± 0.1 % injected dose/g
- Biodistribution, Blood [3, 5]: 0.3 ± 1.0 % injected dose/g
- Biodistribution, Flu tumor [3, 5]: 0.04 ± 0.2 % injected dose/g
- Biodistribution, PIP tumor [3, 5]: 15.3 ± 8.0 % injected dose/g
- Biodistribution, Spleen [3, 5]: 0 % injected dose/g
- Biodistribution, Stomach [3, 5]: 0.3 ± 0.4 % injected dose/g
- Biodistribution, kidney [3, 5]: 0.3 ± 0.4 % injected dose/g
- Biodistribution, lacrimal gland [3, 5]: 0 % injected dose/g
- Biodistribution, salivary gland [3, 5]: 0 % injected dose/g
- Biodistribution, Blood [3, 6]: 0 % injected dose/g
- Biodistribution, Flu tumor [3, 6]: 0 % injected dose/g
- Biodistribution, PIP tumor [3, 6]: 9.5 ± 1.0 % injected dose/g
- Biodistribution, Spleen [3, 6]: 0 % injected dose/g
- Biodistribution, Stomach [3, 6]: 0 % injected dose/g
- Biodistribution, kidney [3, 6]: 0.02 ± 0.2 % injected dose/g
- Biodistribution, lacrimal gland [3, 6]: 0 % injected dose/g
- Biodistribution, salivary gland [3, 6]: 0 % injected dose/g
- Biodistribution, Blood ([3]; 21-24 Hour, 0.5 nmole YC-I-27): 0.03 ± 0.3 % injected dose/g
- Biodistribution, Flu tumor ([3]; 21-24 Hour, 0.5 nmole YC-I-27): 0.2 ± 0.3 % injected dose/g
- Biodistribution, PIP tumor ([3]; 21-24 Hour, 0.5 nmole YC-I-27): 17.5 ± 7.9 % injected dose/g
- Biodistribution, Spleen ([3]; 21-24 Hour, 0.5 nmole YC-I-27): 2.5 ± 4.3 % injected dose/g
- Biodistribution, Stomach ([3]; 21-24 Hour, 0.5 nmole YC-I-27): 0.4 ± 0.7 % injected dose/g
- Biodistribution, kidney ([3]; 21-24 Hour, 0.5 nmole YC-I-27): 0.4 ± 0.5 % injected dose/g
- Biodistribution, lacrimal gland ([3]; 21-24 Hour, 0.5 nmole YC-I-27): 0 % injected dose/g
- Biodistribution, salivary gland ([3]; 21-24 Hour, 0.5 nmole YC-I-27): 0 % injected dose/g
- kidney and stomach uptake ([3]; compared to other At-211 labeled PSMA inhibitors): lower kidney and stomach uptake
- effect on PSMA− PC3-flu SC model (PSMA− PC3-flu): no effect
- Stomach uptake ([4]; @ 1 h): 0.4±0.2 % ID/g
- retention, K ([4]; @1 h, co-injection of DCIBzL): 2.2±0.6 % ID/g
- retention, LG ([4]; @1 h, co-injection of DCIBzL): below detection
- retention, SG ([4]; @1 h, co-injection of DCIBzL): 0.4±0.15 % ID/g
- Stomach uptake ([4]; @ 4 h): 0.4±0.05 % ID/g
- Stomach uptake ([4]; @ 24 h): 0.4±0.7 % ID/g
- ^211At uptake in PSMA+ PC3-PIP xenografts ([4]; combined with DCIBzL): 25.4±4.4 % ID/g
- deastatination in vivo ([4]; mouse, in vivo, listed as [^211At]3): negligible deastatination; also recorded: no evidence of deastatination in vivo
- treatment-related toxicity (overall health status and urinalysis) (CD-1 mice): No CD-1 animals showed treatment-related toxicity
- renal clearance [2, 7]: rapid renal clearance
- retention in PSMA+tumors [2, 7]: persistent retention
- response in PSMA+ PC3-PIP SC model (SC tumor volume) (PSMA+ PC3-PIP): dose-dependent response; also recorded: dose-dependent efficacy

Reference: patent US11813340B2, “PSMA targeted radiohalogenated urea-polyaminocarboxylates for cancer radiotherapy” (The Johns Hopkins University, priority 2018, dated 2023)
